Values after ≈ are worked out from the molar mass of the structure shown.
Tests used:
[1] = tested on: Staphylococcus aureus (ATCC 43300); test: Antibacterial MIC, broth microdilution (CLSI); type: cell-based; conditions: for S. aureus Selectivity Indices, Group / S. aureus Selectivity Index (SI): SI, IC50 (μM)/MIC80 (μM), HEK293 cytotoxicity; for S. aureus Selectivity Indices, Group: Alkyl Amidines and NH Pyrroles; for S. aureus Selectivity Index (SI): numeric value; for MIC80: Staphylococcus aureus, ATCC43300, read-out: MIC80 S. aureus
[2] = tested on: Candida glabrata (ACPF3309); conditions: for MIC99: Nakaseomyces glabratus, read-out: MIC99 Candida glabrata; for C. glabrata Selectivity Indices, Group: Alkyl Amidines and NH Pyrroles
[3] = tested on: Enterococcus faecalis (ATCC 51299); test: Antibacterial MIC, broth microdilution (CLSI); type: cell-based; conditions: for MIC80: Enterococcus faecalis, ATCC51299, read-out: MIC80 E. faecalis; for E. faecalis Selectivity Indices, Group / E. faecalis Selectivity Index (SI): SI, IC50 (μM)/MIC80 (μM), HEK293 cytotoxicity; for E. faecalis Selectivity Indices, Group: Alkyl Amidines and NH Pyrroles; for E. faecalis Selectivity Index (SI): numeric value
T. equiperdum = test: Resazurin-based (Alamar blue) drug sensitivity assay; conditions: Trypanosoma equiperdum, read-out: IC50 T. equiperdum
[4] = tested on: PolyAU double stranded RNA; test: Fluorescence intercalator displacement (FID) assay, SYBR-safe probe; conditions: 20 μM compound, 30° C., lower % = stronger binding
Procedure, shortened: (§1)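 Probe displacement was measured at 30 °C in 1 mM phosphate pH 7.4 containing SybrSafe (12500-fold dilution), 3.76 ng/mL nucleic acid (salmon dsDNA or polyAU dsRNA) and 20 μM compound. Fluorescence loss is normalised between probe-only and probe-plus-nucleic-acid controls.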

[5] = tested on: Genomic double stranded DNA (salmon); test: as above; conditions: 20 μM compound, 30° C., lower % = stronger binding
Procedure, shortened: as §1

T. evansi AntTat 3/3 = test: Resazurin-based (Alamar blue) drug sensitivity assay; conditions: read-out: IC50 T. evansi
Procedure: A detailed description of the procedure for evaluating activity against trypanosomes, using an Alamar Blue (resazurin) assay, is described below.
The bloodstream form (BSF) T. b. brucei s427 (see De Koning, H. P. et al., Mol. Biochem. Parasitol. 2000, 106, 181-185), T. evansi AntTat 3/3 (see Dean, S. et al., Proc. Natl. Acad. Sci. USA, 2013, 110, 14741-14746), and T. equiperdum (see Stewart, M. L. et al., Eukaryot. Cell, 2010, 9, 336-343) were cultured in HMI-9 medium (Life Technologies, Paisley, United Kingdom) supplemented with 10% heat inactivated Foetal Bovine Serum (FBS (PAA Laboratories Linz, Austria)), 14 μL/L β-mercaptoethanol (BDH, Dorset, UK), and 3.0 g/L NaHCO3 (Sigma-Aldrich) and adjusted to pH 7.4. These cell lines were maintained at 37° C. in a humidified, 5% CO2 environment.
A resazurin-based (Alamar blue) drug sensitivity assay was used to assess and compare the activity of standard trypanocides in the different cell lines investigated (see Gould, M. K. et al., Anal. Biochem., 2008, 382, 87-93). Briefly, 23 doubling dilutions of the test compound of the invention, starting at 100 μM, and a compound-free control were prepared in 100 μL medium in a 96-well white plate (Greiner Bio-one, Frickenhausen, Germany). The cells were adjusted to 2×10^4 cells/mL for T. b. brucei and T. equiperdum; 4×10^4 cells/mL for T. evansi; and 5×10^5 cells/mL for T. congolense in the appropriate medium. 100 μL of the adjusted cells was then added to the wells containing drug dilutions and incubated for 48 h under respective culture condition. Thereafter, 20 μL of 125 mg/mL resazurin sodium dye was added, and the plate was incubated for a further 24 h.

[6] = tested on: A. fumigatus A1160 (MFIG001); conditions: Aspergillus fumigatus, read-out: MIC99 A. fumigatus A1160
[7] = tested on: Rhizopus arrhizus (NEQAS12.35321); conditions: read-out: MIC99 Rhizopus arrhizus
Procedure: The Minimum Inhibitory Concentration (MIC, at 99% inhibition) of the compounds was determined using the broth microdilution method as recommended by EUCAST (EUCAST Definitive Document E.DEF 9.3.2, Method for the determination of broth dilution minimum inhibitory concentrations of antifungal agents for conidia forming moulds and EUCAST Definitive Document E.DEF 7.3.2 Method for the determination of broth dilution minimum inhibitory concentrations of antifungal agents for yeasts).

Candida auris (H.17.157) = conditions: for MIC99: Candidozyma auris, read-out: MIC99 Candida auris; for C. auris Selectivity Indices, Group: SI, IC50 (μM)/MIC99 (μg/mL), HEK293 cytotoxicity, Alkyl Amidines and NH Pyrroles
[8] = tested on: Escherichia coli (ATCC 25922); test: Antibacterial MIC, broth microdilution (CLSI); type: cell-based; conditions: Escherichia coli, ATCC25922; read-out: MIC80 E. coli
C. neoformans (F10025) = conditions: Cryptococcus neoformans, read-out: MIC99 C. neoformans
[9] = tested on: SARS-CoV-2 (hCoV-19/Australia/VIC01/2020); test: SARS-CoV-2 microplaque inhibition assay in Vero-E6 cells; type: cell-based; conditions: for SARS-CoV-2 Selectivity Indices, Group: Alkyl Amidines and NH Pyrroles; for IC50: Severe acute respiratory syndrome coronavirus 2, Vero C1008, plaque inhibition, Vero-E6 cells, read-out: IC50 SARS-CoV-2
Influenza (H1N1) = test: Accelerated Viral Neuraminidase Inhibition Assay (AVINA), A549 cells; type: cell-based; conditions: Influenza A virus, 72 h
T. vaginalis = test: Trichomonas resorufin assay; type: cell-based; conditions: for IC50: Trichomonas vaginalis, read-out: IC50 T. vaginalis
[10] = tested on: human respiratory syncytial virus (RSV A2); test: Viral ToxGlo assay, Hep-2 cells; type: cell-based; conditions: 72 h
[11] = SI, IC50 (μM)/MIC99 (μg/mL), HEK293 cytotoxicity
[12] = SI, IC50 (μM)/IC50 (μM), HEK293 cytotoxicity
[13] = SI, IC50 (μM)/IC50 (μM), HEK293 cytotoxicity, numeric value

Compound | S. aureus Selectivity Indices, Group [1] | S. aureus Selectivity Index (SI) [1] | MIC80 [1] [µM] | MIC99 [2] [µg/mL] | MIC80 [3] [µM] | E. faecalis Selectivity Indices, Group [3] | IC50 (T. equiperdum) [µM] | % Normalised Fluorescence with polyAU RNA [4] [%] | % Normalised Fluorescence with gDNA [5] [%] | IC50 (T. evansi AntTat 3/3) [µM] | MIC99 [6] [µg/mL] | MIC99 [7] [µg/mL] | MIC99 (Candida auris (H.17.157)) [µg/mL] | C. auris Selectivity Indices, Group (Candida auris (H.17.157)) | MIC80 [8] [µM] | MIC99 (C. neoformans (F10025)) [µg/mL] | IC50 [9] [µM] | inhibition at 20 µM (Influenza (H1N1)) [%] | IC50 (T. vaginalis) [µM] | inhibition at 20 µM [10] [%] | other results
Cn1cc(NC(=O)c2cc(NC(=O)c3ccc(/C=C/c4cnc5ccccc5c4)cc3)c[nH]2)cc1C(=O)NCCC(=N)N [IIIa4, (E)-N-(3-amino-3-iminopropyl)-1-methyl-4-(4-(4-(2-(quinolin-3-yl)vinyl)benzamido)-1H-pyrrole-2-carboxamido)-1H-pyrrole-2-carboxamide] | D (D: SI > 10) | 81 | < 5 | < 5 | < 5 | D (D: SI > 10) | < 0.01 | 3 | 14 | 0.01 to 0.1 | 5 to 25 (≈ 8.7 to 43.5 µM) | 5 to 25 (≈ 8.7 to 43.5 µM) | 25 to 50 (≈ 43.5 to 87 µM) | C (Group C 1 < SI <= 3) | 25 to 100 (≈ 14.4 to 57.5 µg/mL) | < 5 |  |  |  |  | C. glabrata Selectivity Indices, Group [2, 11]: D (Group D: SI > 50); C. glabrata Selectivity Index (SI) ([2]; SI, IC50 (μM)/MIC99 (μg/mL), HEK293 cytotoxicity, numeric value): 652; E. faecalis Selectivity Index (SI) [3]: 41
CN(C)c1ccc(/C=C/c2ccc(C(=O)Nc3cc(C(=O)Nc4c[nH]c(C(=O)NCCC(=N)N)c4)n(C)c3)cn2)cc1 [IIIa7, (E)-N-(5-((5-((3-amino-3-iminopropyl)carbamoyl)-1H-pyrrol-3-yl)carbamoyl)-1-methyl-1H-pyrrol-3-yl)-6-(4-(dimethylamino)styryl)nicotinamide] | D (D: SI > 10) | 14 | < 5 | < 5 | 5 to 25 (≈ 2.84 to 14.2 µg/mL) |  | > 1 | 20 | 13 | > 1 | 5 to 25 (≈ 8.81 to 44 µM) | 5 to 25 (≈ 8.81 to 44 µM) | 5 to 25 (≈ 8.81 to 44 µM) | C (Group C 1 < SI <= 3) | 25 to 100 (≈ 14.2 to 56.8 µg/mL) | < 5 | < 2 |  |  |  | SARS-CoV-2 Selectivity Indices, Group [9, 12]: C (Group C: 10 < SI <= 25); SARS-CoV-2 Selectivity Index (SI) [9, 13]: 24; C. glabrata Selectivity Indices, Group [2, 11]: B (Group B: 12 < SI <= 20)
N=C(N)CCNC(=O)c1cc(NC(=O)c2cc(NC(=O)c3ccc(/C=C/c4ccc5nonc5c4)cc3)c[nH]2)c[nH]1 [IIIa8, (E)-N-(3-amino-3-iminopropyl)-4-(4-(4-(2-(benzo[c][1,2,5]oxadiazol-5-yl)vinyl)benzamido)-1H-pyrrole-2-carboxamido)-1H-pyrrole-2-carboxamide] |  |  | 25 to 100 (≈ 13.8 to 55.2 µg/mL) | > 50 | > 100 |  | < 0.01 | 10 | 31 | 0.01 to 0.1 | > 50 | > 50 | > 50 |  | > 100 | 5 to 25 (≈ 9.07 to 45.3 µM) |  |  |  |  | 
Cn1cc(NC(=O)c2cc(NC(=O)c3ccc(/C=C/c4cnc5ccccc5c4)cc3)c[nH]2)cc1C(=O)NCCN1CCOCC1 [IIIb8, (E)-1-methyl-N-(2-morpholinoethyl)-4-(4-(4-(2-(quinolin-3-yl)vinyl)benzamido)-1H-pyrrole-2-carboxamido)-1H-pyrrole-2-carboxamide] |  |  | < 5 |  | > 100 |  | < 0.01 | 26 | 37 | 0.01 to 0.1 |  |  |  |  | > 100 |  |  | > 50 |  |  | 
[H]/N=C(\CCNC(=O)c1cc(NC(=O)c2cc(NC(=O)c3ccc(C=Cc4ccc(N(C)C)cc4)nc3)cn2C)cn1C)NCC [Ia1, (E)-6-(4-(dimethylamino)styryl)-N-(5-((5-((3-(ethylamino)-3-iminopropyl)carbamoyl)-1-methyl-1H-pyrrol-3-yl)carbamoyl)-1-methyl-1H-pyrrol-3-yl)nicotinamide] | B (Group B: 3 < SI <= 5) |  | 5 to 25 (≈ 3.05 to 15.2 µg/mL) | < 5 | 25 to 100 (≈ 15.2 to 61 µg/mL) |  | 0.1 to 1 | 5 | 13 | 0.01 to 0.1 | 5 to 25 (≈ 8.2 to 41 µM) | > 50 | 5 to 25 (≈ 8.2 to 41 µM) | B (Group B: 0.4 < SI <= 1) | > 100 | < 5 | 2 to 8 |  |  |  | SARS-CoV-2 Selectivity Indices, Group [9, 12]: B (Group B: 4.1 < SI <= 10)
CC/N=C(\N)CCNC(=O)c1cc(NC(=O)c2cc(NC(=O)c3ccc(/C=C/c4cnc5ccccc5c4)cc3)cn2C)cn1C [Ia14, N—((Z)-3-amino-3-(ethylimino)propyl)-1-methyl-4-(1-methyl-4-(4-((E)-2-(quinolin-3-yl)vinyl)benzamido)-1H-pyrrole-2-carboxamido)-1H-pyrrole-2-carboxamide] | D (D: SI > 10) | 44 | < 5 | 5 to 25 (≈ 8.11 to 40.5 µM) | < 5 | D (D: SI > 10) |  | 6 | 2 |  | > 50 | > 50 | > 50 |  | > 100 | 5 to 25 (≈ 8.11 to 40.5 µM) |  | < 10 | < 1 | 10 to 25 | E. faecalis Selectivity Index (SI) [3]: 11; T. vaginalis Selectivity Indices, Group (T. vaginalis; SI, IC50 (μM)/IC50 (μM), HEK293 cytotoxicity, Alkyl Amidines and NH Pyrroles): D (Group D: SI > 32); T. vaginalis Selectivity Index (SI) (T. vaginalis; [13]): 35
COc1ccc(/C=C/c2ccc(C(=O)Nc3cc(C(=O)Nc4cc(C(=O)NCCC(=N)NC(C)C)n(C)c4)n(C)c3)cn2)cc1 [Ia15, (E)-N-(5-((5-((3-imino-3-(isopropylamino)propyl)carbamoyl)-1-methyl-1H-pyrrol-3-yl)carbamoyl)-1-methyl-1H-pyrrol-3-yl)-6-(4-methoxystyryl)nicotinamide] | C (Group C: 5 < SI <= 10) |  | 5 to 25 (≈ 3.05 to 15.3 µg/mL) | 5 to 25 (≈ 8.19 to 40.9 µM) | 5 to 25 (≈ 3.05 to 15.3 µg/mL) |  | 0.1 to 1 | 64 | 16 | 0.1 to 1 | 25 to 50 (≈ 40.9 to 81.9 µM) |  |  |  | 25 to 100 (≈ 15.3 to 61.1 µg/mL) | < 5 | 8 to 32 |  | > 50 | 10 to 25 | 
[H]/N=C(\CCNC(=O)c1cc(NC(=O)c2cc(NC(=O)c3ccc(C=Cc4ccc(C#N)cc4)cc3)cn2C)cn1C)NCC [Ia16, (E)-4-(4-(4-cyanostyryl)benzamido)-N-(5-((3-(ethylamino)-3-iminopropyl)carbamoyl)-1-methyl-1H-pyrrol-3-yl)-1-methyl-1H-pyrrole-2-carboxamide] |  |  | 25 to 100 (≈ 14.8 to 59.1 µg/mL) | 25 to 50 (≈ 42.3 to 84.6 µM) | 5 to 25 (≈ 2.95 to 14.8 µg/mL) | B (Group B: 3 < SI <= 5) |  | 27 | 31 |  | > 50 |  |  |  | > 100 | 5 to 25 (≈ 8.46 to 42.3 µM) |  | 25 to 50 | 5 to 50 | 25 to 50 | 
[H]/N=C(\CCNC(=O)c1cc(NC(=O)c2cc(NC(=O)c3ccc(C=Cc4ccc(C#N)cc4)cc3)cn2C)cn1C)NC(C)C [Ia17, (E)-4-(4-(4-cyanostyryl)benzamido)-N-(5-((3-imino-3-(isopropylamino)propyl)carbamoyl)-1-methyl-1H-pyrrol-3-yl)-1-methyl-1H-pyrrole-2-carboxamide] |  |  | 25 to 100 (≈ 15.1 to 60.5 µg/mL) | 25 to 50 (≈ 41.3 to 82.7 µM) | 25 to 100 (≈ 15.1 to 60.5 µg/mL) |  |  | 28 | 13 |  | > 50 |  |  |  | > 100 | > 50 |  | 10 to 25 | 5 to 50 | 10 to 25 | 
